Data on 8 compounds can be found in PubChem BioAssay (NCI).

Structures are written as SMILES.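 Where inhibition never reached the appropriate level, the endpoint shown equals the highest concentration tested. Otherwise, values were interpolated linearly from a five-concentration, 48-hour dose response in 96-well plates. At the TGI there is no net growth.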

Some test systems named below: A549 NSCLC; ACHN renal; BT-549 breast; CAKI-1 renal; CCRF-CEM leukemia; DU-145 prostate; HCT-116 colon; HCT-15 colon; HS 578T breast; MCF7 breast; MDA-N; NCI-H460 lung; NCI/ADR-RES ovarian; OVCAR-3 ovarian; RPMI-8226 leukemia; SF-268 CNS; SK-MEL-2 melanoma.
Holding throughout (test): NCI anticancer screen, dose series, 48 h

`CC[C@@H]1/C=C/C=C/C[C@H](C)[C@@H](O)[C@@H](C)C(=O)[C@H](C)[C@@H](O)[C@H](C)C(=O)[C@H](C)[C@@H](O)[C@H](C)/C=C/C(=O)O[C@H]2[C@@H](C)[C@@H](CC1)O[C@@]1(CC[C@@H](C)[C@@H](CC(C)O)O1)[C@@H]2C` (stereo not given in full): the TGI in the assay on A549 NSCLC was over 16.9 µM; in the assay on ACHN renal, 16.7 µM; in the assay with BT-549 breast, 24.4 µM; with CAKI-1 renal, over 25 µM; in the assay on CCRF-CEM leukemia it was over 14.4 µM; in the assay on DU-145 prostate, over 11.8 µM. In addition, the TGI in the assay with HCT-116 colon was over 25 µM; in the assay with HCT-15 colon, over 25 µM; with HS 578T breast, over 23.5 µM; with MCF7 breast, 7.49 µM; in the assay with MDA-N it was over 17.6 µM; in the assay with NCI-H460 lung it was over 22.2 µM. Also, the TGI with NCI/ADR-RES ovarian was over 19.1 µM; with OVCAR-3 ovarian it was 17.7 µM; in the assay with RPMI-8226 leukemia it was 14.7 µM; in the assay with SF-268 CNS it was over 25 µM; with SK-MEL-2 melanoma, 18.1 µM.

With `O=c1[nH]c(=S)[nH]cc1CN1CCOCC1`, the TGI with A549 NSCLC, in the assay with ACHN renal, in the assay with BT-549 breast, in the assay with CAKI-1 renal, with CCRF-CEM leukemia and in the assay with DU-145 prostate was over 100 µM throughout. Further, the TGI with HCT-116 colon, in the assay with HCT-15 colon, with HS 578T breast, in the assay with MCF7 breast, in the assay with MDA-N and in the assay with NCI-H460 lung was over 100 µM in each case. The TGI in the assay with NCI/ADR-RES ovarian, in the assay with OVCAR-3 ovarian, with RPMI-8226 leukemia, in the assay with SF-268 CNS and in the assay with SK-MEL-2 melanoma was over 100 µM throughout.

In the case of `O=C1c2ccccc2-c2nnc3c(c21)Cc1ccccc1C3`, the TGI in the assay on A549 NSCLC, in the assay with ACHN renal, with BT-549 breast, in the assay on CAKI-1 renal, with CCRF-CEM leukemia and in the assay on DU-145 prostate was over 10 µM throughout. In addition, the TGI with HCT-116 colon, in the assay on HCT-15 colon, in the assay with HS 578T breast, in the assay on MCF7 breast, with MDA-N and in the assay on NCI-H460 lung was over 10 µM throughout. Further, the TGI with NCI/ADR-RES ovarian, in the assay with OVCAR-3 ovarian, in the assay on RPMI-8226 leukemia, with SF-268 CNS and with SK-MEL-2 melanoma was over 10 µM throughout.

Regarding `CN1CCN(c2cc3[nH]c4cc(O)cc(O)c4c(=O)c3cc2N)CC1`, the TGI was over 100 µM in the assay on A549 NSCLC; over 100 µM in the assay on ACHN renal; 95.1 µM in the assay with BT-549 breast; 87 µM with CAKI-1 renal; 32.9 µM in the assay on CCRF-CEM leukemia; over 100 µM in the assay on DU-145 prostate. Further, the TGI was over 100 µM in the assay on HCT-116 colon; over 100 µM with HCT-15 colon; over 100 µM in the assay with HS 578T breast; 45.8 µM in the assay with MCF7 breast; 69 µM in the assay on MDA-N; over 100 µM with NCI-H460 lung. The TGI in the assay with NCI/ADR-RES ovarian was over 100 µM; in the assay with OVCAR-3 ovarian, 54.9 µM; in the assay on RPMI-8226 leukemia it was 49.2 µM; in the assay on SF-268 CNS, 52.5 µM; with SK-MEL-2 melanoma, 70.7 µM.

In the case of `O=C(O)c1cc(CCc2ccc(O)c(O)c2)ccc1O`, the TGI in the assay with A549 NSCLC, in the assay on ACHN renal, with BT-549 breast, with CAKI-1 renal, in the assay on CCRF-CEM leukemia and with DU-145 prostate was over 100 µM throughout. In addition, the TGI was over 100 µM in the assay on HCT-116 colon; over 100 µM in the assay with HCT-15 colon; over 100 µM in the assay on HS 578T breast; over 100 µM with MCF7 breast; 32.3 µM with MDA-N; over 100 µM in the assay on NCI-H460 lung. Also, the TGI in the assay on NCI/ADR-RES ovarian, in the assay on OVCAR-3 ovarian, with SF-268 CNS and in the assay on SK-MEL-2 melanoma was over 100 µM each time.

Regarding `Cc1cn([C@@H]2O[C@H](CO[Si](C)(C)C(C)(C)C)[C@]3(O[C@H]3C(=O)NO)[C@H]2O[Si](C)(C)C(C)(C)C)c(=O)[nH]c1=O`, the TGI turned out to be 3.63 µM in the assay on A549 NSCLC; 3.06 µM in the assay on ACHN renal; 3.29 µM with BT-549 breast; 4.31 µM in the assay on CAKI-1 renal; 2.76 µM in the assay on CCRF-CEM leukemia; 3.67 µM with DU-145 prostate. In addition, the TGI in the assay on HCT-116 colon worked out at 2.85 µM; in the assay with HCT-15 colon it was 3.62 µM; in the assay on HS 578T breast it was 4.23 µM; with MCF7 breast it was 3.15 µM; in the assay with MDA-N, 3.01 µM; in the assay on NCI-H460 lung it was 3.15 µM. Also, the TGI in the assay on NCI/ADR-RES ovarian worked out at 18.5 µM; in the assay on OVCAR-3 ovarian, 3.49 µM; in the assay with RPMI-8226 leukemia, 2.84 µM; in the assay with SF-268 CNS it was 2.97 µM; with SK-MEL-2 melanoma it was 3.9 µM.

For the compound `C#CCOC(=O)C(N)CC(N)=O` (stereo not given), the TGI in the assay on A549 NSCLC, with ACHN renal, with BT-549 breast, with CAKI-1 renal, with CCRF-CEM leukemia and in the assay with DU-145 prostate was over 100 µM each time. For the same compound, the TGI in the assay with HCT-116 colon, in the assay on HCT-15 colon, with HS 578T breast, with MCF7 breast, in the assay with MDA-N and in the assay on NCI-H460 lung was over 100 µM each time. The TGI with NCI/ADR-RES ovarian, with OVCAR-3 ovarian, in the assay with RPMI-8226 leukemia, with SF-268 CNS and with SK-MEL-2 melanoma was over 100 µM in each case.

For the compound `NS(=O)(=O)c1ccc(NC(=S)NC(=O)Nc2ccc(Cl)c(Cl)c2)cc1`, the TGI in the assay on A549 NSCLC is 31.7 µM; in the assay with ACHN renal, 32.2 µM; in the assay with BT-549 breast, 31.7 µM; in the assay with CAKI-1 renal, 40.1 µM; with CCRF-CEM leukemia, 70.7 µM; in the assay on DU-145 prostate, 33.7 µM. Also, the TGI in the assay on HCT-116 colon is 27.7 µM; in the assay with HCT-15 colon, 29.8 µM; in the assay on HS 578T breast, 59.3 µM; in the assay with MCF7 breast, 30.2 µM; with MDA-N, 29.6 µM; with NCI-H460 lung it was over 69.8 µM. The TGI in the assay with NCI/ADR-RES ovarian is 44.6 µM; in the assay with OVCAR-3 ovarian, 42 µM; in the assay with RPMI-8226 leukemia it was over 85.3 µM; with SF-268 CNS, 32.3 µM; in the assay with SK-MEL-2 melanoma it was 34.4 µM.
